This is an account of results in US12485191B2, “Radiopharmaceuticals and methods of use thereof” (BOARD OF REGENTS OF THE UNIVERSITY OF NEBRASKA, priority 2017, dated 2025).

The subject of data set [1] is HT-29 xenograft tumors. The data set can be described thus: Tissue adduct formation of the radioconjugates (SDS-PAGE, centrifugal filtration). The class given is in vivo, mice. The following applies: autoradiographic SDS-PAGE, 24 hours post-injection. As for the experimental part: The radioconjugates (800 μCi/mouse) were intravenously injected to the tumor bearing mice. The mice were sacrificed and the tumor, liver, and kidney were excised at 24 and 72 hours post-injection time points. The tumor and organs were homogenized in RIPA buffer (50 mg/100 μL) containing Halt™ protease inhibitor (100×, 1 μL) on ice and centrifuged to remove the pellet. An aliquot (20 μL) of the supernatant of the sample at 24 hours was mixed with Novex Tris-Glycine SDS sample buffer (2×, 20 μL) and incubated for further 10 minutes. The mixtures (20 μL) were loaded onto a Novex 16% tris-glycine gel and analyzed by SDS-PAGE at 110 V for 90 minutes. The autoradiograph of the SDS-PAGE was performed according to the same method in section 3.8.1. On the other hand, the aliquots (100 μL) of supernatants of all the tumor samples at 24 hours and 72 hours were individually centrifuged with Pierce™ protein concentrators (MWCO=10 kDa) to separate the low molecular weight radioactivity. The radioactivity in each fraction was quantified using a gamma counter to calculate the percentage of the cysteine proteases trapped radioconjugate in the total counts.

Data set [2] relates to HT-29 cells. The data set can be described thus: HT-29 cell efflux study. It counts as cell-based, human. The following applies: at 24 hours. The method, then: The HT-29 Cell Efflux Studies
The ^177Lu radioconjugate was added to a sterilized 1.5 mL microcentrifuge tube containing HT-29 cells ˜1×10^6) suspended in 300 μL of cell culture medium, yielding a final radioactivity concentration of 100,000 cpm/100 μL, and was incubated for 2 hours at 37° C. After the removal of the culture medium, the cells were washed with fresh medium (5×500 μL) followed by the addition of 500 μL of fresh medium for the efflux assay. At 0, 1, 2, 4, 8, and 24 hour time interval, fresh medium (500 μL) was added to the tube to replace the old medium which was harvested for quantitative analysis of the effluxed radioactivity using a gamma counter. The cells were lysed with a 10% aqueous SDS solution at 24 hour to quantify the remaining internalized radioactivity. The effluxed fraction is expressed as a percentage of the total radioactivity added to the tube, which is the sum of the effluxed and internalized fractions obtained from the study.

In data set [3] the target is T1, cathepsin B (human Liver) (Homo sapiens, UniProt P07858).
T1 construct: from tissue; host or cells: human liver
The data set can be described thus: Inhibition constant (Ki) of the compounds to cathepsin B. The class given is biochemical. As for the experimental part: Determination of the Km and Vmax of Cathepsin B for Z-Arg-Arg-AMC
The solution of cathepsin B (human Liver) (50 μL, 2 nM) in assay buffer used above was mixed with 50 μL of solution of substrate Z-Arg-Arg-AMC in the assay buffer at different concentrations ([S]) (25 μM, 50 μM, 100 μM, 500 μM and 1 mM). The mixture was incubated at 37° C. and the fluorescence of the liberated aminomethylcoumarin at 460 nM using 355 nm excitation was measured at predetermined time points (0, 2, 4, 6, 8, and 10 minutes). The fluorescence intensity was plotted versus time and the reaction rates (v0) were calculated as the slope of the trend lines obtained by liner regression. Km and maximum reaction rate (Vmax-obs) was determined from the equation v0=Vmax[S]/(Km+[S]) and solved by nonlinear regression using GraphPad Prism 5. All measurements were in biological triplicate.
Determination of the Inhibition Constant (Ki) of the Compounds to Cathepsin B
The cathepsin B (human Liver) in assay buffer (25 μL) was mixed with the conjugate (25 μL) in 96-well plate. After the solution was mixed, the Z-Arg-Arg-AMC in assay buffer (50 μL) was added to the well, yielding a final cathepsin B concentration of 1 nM, conjugate concentration ([C]) of 15 nM or 5 μM, and substrate concentration ([S]) of 25 μM, 50 μM, 100 μM, 500 μM and 1 mM. The mixture was incubated at 37° C. and the fluorescence of the liberated aminomethylcoumarin at 460 nM using 355 nm excitation was measured at predetermined time points (0, 2, 4, 6, 8, and 10 minutes). The fluorescence intensity was plotted versus time with observed reaction rates (v0-obs) calculated as the slope of the trend lines obtained by liner regression. The observed rate constant (Kobs) and observed maximum reaction rate (Vmax-obs) was determined from the equation v0-obs=Vmax-obs [S]/(Kobs+[S]) and solved by nonlinear regression using GraphPad Prism 5. The Ki was calculated from the equation Kobs=Km (1+[C]/Ki). All measurements were in biological triplicate.

The subject of data set [4] is HT-29 xenograft tumors. The data set can be described thus: Biodistribution study in HT-29 xenograft mouse model. The following applies: HT-29 xenograft, by 24 hours. The class given is in vivo, mice. The method, then: Female SCID mice (5 weeks of age) received subcutaneous injections of HT-29 cells (5×10^6) suspended in Matrigel® into the flanks. When the tumor size reached 80 mm^3 (two weeks after injection), the mice were randomized into three groups and intravenously injected with 10 μCi (0.37 MBq) of the purified ^177Lu labeled conjugates via tail vein. The mice were sacrificed and the tissues were excised at 4, 24, and 72 hours post-injection time points. The blood, tumor, and excised tissues were weighed. The radioactivity for each sample was measured using a gamma counter. The percentage injected dose per gram (% ID/g) and the radioactivity ratios between tumor and non-targeted tissues were calculated.

Data set [5] relates to HT-29 cells. Description: Intracellular trapping of the radioconjugates in living HT-29 cells (GPC, SDS-PAGE). The class given is cell-based, human. The following applies: live HT-29 cells, GPC and SDS-PAGE. The method, then: Intracellular Trapping of the Radioconjugates in Living HT-29 Cells
To the HT-29 cells (1×10^6/well) seeded in 6-well plates was added the radioconjugates (0.74 MBq, 20 μCi) in 1 mL of cell culture medium. The cells were incubated at 37° C. for 4 hours and the medium was removed by vacuum followed washing with PBS (2×2 mL). The cells (˜3×10^6) were trypsinized and combined in microcentrifuge. The RIPA buffer (100 μL) containing Halttmprotease inhibitor (100×, 1 μL) was added to the cell pellet and vigorously vortexed for 1 minute. The suspension was incubated on ice for 15 minutes and centrifuged to remove the pellet. The supernatant (80 μL) was equally divided into two portions. The first portion (40 μL) was directly analyzed by radioactive-GPC with a flow rate of 0.6 mL/minute (40% ACN in PBS containing 0.1% sodium azide). The second portion (40 μL) of the cell lysate was mixed with Novex Tris-Glycine SDS sample buffer (2×) (40 μL) and incubated for another 15 minutes. The mixture (30 μL) was loaded onto a Novex 16% tris-glycine gel and analyzed by SDS-PAGE at 110 V for 90 minutes. The autoradiograph of the SDS-PAGE was performed as described above.

The nature of data set [6]: Distribution coefficient (Log D7.4) of the conjugates. The class given is physicochemical. Particulars: determined by radiometric analysis; 177Lu-labeled conjugate. As for the experimental part: Distribution Coefficient (Log D7.4) of the Conjugates The distribution coefficient was determined for each ^177Lu-labeled conjugate. In a 1.5 mL centrifuge tube, 0.5 mL of 1-octanol was added to 0.5 mL of PBS (pH 7.4) containing the radiolabeled peptide (500,000 cpm). The solution was vigorously vortexed for 2 minutes at room temperature and subsequently centrifuged to yield two immiscible layers. The radioactivity of the aliquots (100 μL) taken from each layer were quantified by the gamma counter and the Log D7.4 for each conjugates was calculated.

The subject of data set [7] is HT-29 xenograft tumors. More on the design: species or system mice. The following applies: mouse. The method, then:
Evaluation of Cysteine Proteases Trapping of the Cy 5-Labeled Conjugates
The Cy 5-labeled conjugates (40 nmol) were intravenously injected to the tumor bearing mice. The mice were sacrificed at 24 post-injection time points, and the heart, lung, liver, spleen, pancreas, kidney, intestine, brain, and tumor were excised and imaged using an IVIS spectrum system. The tumor and organs were homogenized in RIPA buffer (50 mg/100 μL) containing Halt™ protease inhibitor (100×, 1 μL) on ice and centrifuged to remove the pellet. An aliquot (18 μL) of the supernatant of the sample was added in NuPAGE® sample reducing reagent (10×, 2 μL) and denatured at 80° C. for 2 minutes. The sample was mixed with Novex Tris-Glycine S DS sample buffer (2×, 20 μL) and incubated for further 10 minutes. The mixtures (20 μL) were loaded onto a Novex 16% tris-glycine gel and analyzed by SDS-PAGE at 110 V for 90 minutes, followed by electro transferring onto PVDF membranes. The PVDF membranes were blocked by animal-free blocking buffer for 1 hour at room temperature and then were incubated with Cathepsin B (D1C7Y) XP® Rabbit mAb at 4° C. for overnight. Membranes was then incubated with Goat anti-Rabbit IgG (H+L) secondary antibody at room temperature for 1 hour and visualized using Typhoon FLA 9500.

A further data set addresses CatL (Homo sapiens, UniProt P07711). The data set can be described thus: CatL inhibition constant. It counts as biochemical.
The target in the next data set is CatB (Homo sapiens, UniProt P07858). Description: CatB inhibition of GRPR-targeted agents. It counts as biochemical. The method, then: The Inhibition of Cathepsin B Activity by the Conjugates The phosphate buffer (0.1 M, pH=5.8) containing EDTA (1 mM), DTT (2.7 mM), and Brij®35 (0.03%) was prepared before the assay. […] The solution of cathepsin B (human Liver) in assay buffer (50 μL, 0.544 nM) was added to the mixture which was further incubated at 37° C. for 20 minutes. The fluorescence of the liberated aminomethylcoumarin at 460 nM using 355 nm excitation was measured and the IC50 of the cathepsin B inhibition versus the samples without the inhibitor was determined by nonlinear regression using GraphPad Prism 5.

The target of a further data set is GRPR (Homo sapiens, UniProt P30550). The data set can be described thus: GRPR affinity of GRPR-targeted agents. The class given is binding.
Sequence of GRPR (P30550 whole entry): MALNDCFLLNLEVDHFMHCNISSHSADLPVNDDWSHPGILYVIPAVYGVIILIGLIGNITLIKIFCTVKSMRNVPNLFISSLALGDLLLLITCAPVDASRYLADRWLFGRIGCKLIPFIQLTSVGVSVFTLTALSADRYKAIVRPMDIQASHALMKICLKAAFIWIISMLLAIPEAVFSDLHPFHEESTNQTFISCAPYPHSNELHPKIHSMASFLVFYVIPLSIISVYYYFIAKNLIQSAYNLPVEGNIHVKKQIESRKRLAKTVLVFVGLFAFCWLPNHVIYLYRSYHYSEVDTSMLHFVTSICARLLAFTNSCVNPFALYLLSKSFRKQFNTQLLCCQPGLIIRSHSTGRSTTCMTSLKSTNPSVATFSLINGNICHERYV
For a further data set, the system named is PC-3 tumor. Particulars: mouse, in vivo.

The structures appear in SMILES notation. Marks after values point to notes of the source that are not given here. Bounds are passed on as bounds.

Sequence of CatL (P07711 114-333): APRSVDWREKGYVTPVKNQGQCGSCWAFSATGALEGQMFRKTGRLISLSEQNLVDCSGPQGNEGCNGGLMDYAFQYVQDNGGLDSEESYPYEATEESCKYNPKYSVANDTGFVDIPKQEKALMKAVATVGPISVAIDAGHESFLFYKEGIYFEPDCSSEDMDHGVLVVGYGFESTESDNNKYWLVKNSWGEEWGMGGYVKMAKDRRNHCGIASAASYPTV

On to `Cc1cc(O)cc(C)c1C[C@H](NC(=O)[C@@H]1CCCN1C(=O)[C@H](CCCNC(=N)N)NC(=O)[C@H](CCCNC(=N)N)N(C)C(=O)[C@@H]1CCCN1C(=O)[C@H](CCCCN)NC(=O)[C@@H](CO)NC(=O)[C@@H](CO)NC(=O)[C@@H](CO)NC(=O)[C@H](Cc1cn(CC(=O)N[C@H](CO)C(=O)N[C@H](CO)C(=O)N[C@H](CO)C(=O)NCC(=O)NCCCC[C@H](NC(=O)[C@H](Cc2ccccc2)NC(=O)OCc2ccccc2)C(=O)NCCc2ccccc2)nn1)NC(=O)CN1CCN(CC(=O)O)CCN(CC(=O)O)CCN(CC(=O)O)CC1)C(=O)N[C@H](C(=O)N[C@@H](CC(C)C)C(=O)O)C(C)(C)C` [Compound 3b], for which the “in vivo adduct formation (in words)” value with HT-29 xenograft tumors [1] is recorded as “no signs of adduct formation”. Besides, the efflux in the data set on HT-29 cells [2] is 69%. In addition, in [3], the “CatB K1” value is recorded as “ni”; the “Ki and inhibition IC50 to CatB (in words)” value is listed as “did not demonstrate any inhibition”. The “decrease in tumor retention” value in the data set with HT-29 xenograft tumors [4] is reported as 40%. In addition, the “intracellular adduct formation (in words)” value in the data set on HT-29 cells [5] was “no adduct formation”. Besides, in data set [6], the logD7.4 is −2.01 ± 0.06^b.

As for `Cc1cc(C)c(C(=O)OCC(=O)[C@H](CCCCNC(=O)CNC(=O)[C@@H](CO)NC(=O)[C@@H](CO)NC(=O)[C@@H](CO)NC(=O)Cn2cc(C[C@H](NC(=O)CCCCC[N+]3=C(/C=C/C=C/C=C4/N(C)c5ccccc5C4(C)C)C(C)(C)c4ccccc43)C(=O)N[C@H](CO)C(=O)N[C@H](CO)C(=O)N[C@H](CO)C(=O)N[C@@H](CCCCN)C(=O)N3CCC[C@H]3C(=O)N(C)[C@@H](CCCNC(=N)N)C(=O)N[C@@H](CCCNC(=N)N)C(=O)N3CCC[C@H]3C(=O)N[C@@H](Cc3c(C)cc(O)cc3C)C(=O)N[C@H](C(=O)N[C@@H](CC(C)C)C(=O)O)C(C)(C)C)nn2)NC(=O)[C@H](Cc2ccccc2)NC(=O)OCc2ccccc2)c(C)c1` [Compound 4a], the “tumor retention by ex vivo imaging (in words)” value in the data set on HT-29 xenograft tumors [7] was “greater than its counterpart 4b”.

`Cc1cc(O)cc(C)c1C[C@H](NC(=O)[C@@H]1CCCN1C(=O)[C@H](CCCNC(=N)N)NC(=O)[C@H](CCCNC(=N)N)N(C)C(=O)[C@@H]1CCCN1C(=O)[C@H](CCCCN)NC(=O)[C@@H](CO)NC(=O)[C@@H](CO)NC(=O)[C@@H](CO)NC(=O)[C@H](Cc1cn(CCNC(=O)[C@H](CCCNC(=N)N)NC(=O)[C@H](CC(C)C)NC(=O)CCC(=O)O)nn1)NC(=O)CN1CCN(CC(=O)O)CCN(CC(=O)O)CCN(CC(=O)O)CC1)C(=O)N[C@H](C(=O)N[C@@H](CC(C)C)C(=O)O)C(C)(C)C` [Ec]: at CatL, the “CatL Ki” value is “ni^b”. Also, the “CatB Ki” value in [3] (Table 3) was “ni^b”.

As usually defined, the IC50 is the concentration at which inhibition is half-maximal. The low end stands for greater potency in that assay, the high end for weaker potency in that assay. Turning to `CSCC[C@H](NC(=O)[C@H](CC(C)C)NC(=O)[C@H](Cc1c[nH]cn1)NC(=O)CNC(=O)[C@@H](NC(=O)[C@H](C)NC(=O)[C@H](Cc1c[nH]c2ccccc12)NC(=O)[C@H](CCC(N)=O)NC(=O)CCOCCOCCOCCOCCNC(=O)[C@H](Cc1cn(CCNC(=O)[C@H](CCCNC(=N)N)NC(=O)[C@H](CC(C)C)NC(=O)CCC(=O)O)nn1)NC(=O)CN1CCN(CC(=O)O)CCN(CC(=O)O)CCN(CC(=O)O)CC1)C(C)C)C(N)=O` [^177Lu-C-AG, metal not drawn], the IC50 on CatB is more than 200000 nM; on GRPR it was 16.5 ± 3.3 nM. Besides, the tumor retention with PC-3 tumor is reported as 32%.
